This assay concerns LNCaP cells. The assay is described as follows: LNCaP cell viability assay (MTS). Type of assay: cell-based. The following applies: Homo sapiens, LNCaP, 48 h, LNCaP cell line. The gist of the method: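 LNCaP cells (5000/well) treated 24 h after plating with compound at 1–80 µM for 48 h. Relative cell number read by MTS; GI50 from four-parameter variable-slope log(inhibitor) fit with bottom constrained to zero.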
The compound `CCOC(=O)C(CC1CCOC1)NS(=O)(=O)c1ccc(OC(F)(F)F)cc1` (centres unmarked) [Compound 110, Ethyl 3-(tetrahydrofuran-3-yl)-2-((4-(trifluoromethoxy)phenyl)sulfonamido)propanoate] showed a GI50 of 61 µM.

Regarding `COC(=O)C(Cc1ccccc1O)NS(=O)(=O)c1ccc(OC(F)(F)F)cc1` (centres unmarked) [Compound 111, Methyl 3-(2-hydroxyphenyl)-2-((4-(trifluoromethoxy)phenyl)sulfonamido)propanoate], growth was halved (GI50) at 50 µM.

For the compound `COC(=O)C(Cc1ccc(O)c(F)c1)NS(=O)(=O)c1ccc(OC(F)(F)F)cc1` (centres unmarked) [Compound 112, Methyl 3-(3-fluoro-4-hydroxyphenyl)-2-((4-(trifluoromethoxy)phenyl)sulfonamido)propanoate], growth was halved (GI50) at 38 µM.

Consider `CC(C)c1ccc(C(CC(=O)O)NS(=O)(=O)c2ccc(OC(F)(F)F)cc2)cc1` (centres unmarked) [Compound 113, 3-(4-isopropylphenyl)-3-((4-(trifluoromethoxy)phenyl)sulfonamido)propanoic acid], for which the GI50 is 66 µM.

Compound `CC(C)(C)OC(=O)NC[C@H](NS(=O)(=O)c1ccc(OC(F)(F)F)cc1)c1ccccc1` [Compound 114, tert-butyl (R)-(2-phenyl-2-((4-(trifluoromethoxy)phenyl)sulfonamido)ethyl)carbamate] registered a GI50 of 42.5 µM.

Consider `CC(C)(C)OC(=O)NC[C@@H](NS(=O)(=O)c1ccc(OC(F)(F)F)cc1)c1ccccc1` [Compound 115, tert-butyl (S)-(2-phenyl-2-((4-(trifluoromethoxy)phenyl)sulfonamido)ethyl)carbamate], for which the GI50 worked out at 51.6 µM.

For `NC[C@H](NS(=O)(=O)c1ccc(OC(F)(F)F)cc1)c1ccccc1` [Compound 116, (R)—N-(2-amino-1-phenylethyl)-4-(trifluoromethoxy)benzenesulfonamide], growth was halved (GI50) at 51.2 µM.

For the compound `NC[C@@H](NS(=O)(=O)c1ccc(OC(F)(F)F)cc1)c1ccccc1` [Compound 117, (S)—N-(2-amino-1-phenylethyl)-4-(trifluoromethoxy)benzenesulfonamide], the GI50 was 55 µM.

Take `CCCOC1CCN(CC(NS(=O)(=O)c2ccc(OC(F)(F)F)cc2)c2ccccc2)CC1` (centres unmarked) [Compound 118, N-(1-phenyl-2-(4-propoxypiperidin-1-yl)ethyl)-4-(trifluoromethoxy)benzenesulfonamide]: the GI50 was determined as 42.4 µM.

In turn, `Cc1cccc(C(CN(C)C)NS(=O)(=O)c2ccc(OC(F)(F)F)cc2)c1` (centres unmarked) [Compound 119, N-(2-(dimethylamino)-1-(m-tolyl)ethyl)-4-(trifluoromethoxy)benzenesulfonamide] yielded a GI50 of 48.5 µM.

`CN(C)CC(NS(=O)(=O)c1ccc(OC(F)(F)F)cc1)c1cccc(C(F)(F)F)c1` (centres unmarked) [Compound 120, N-(2-(dimethylamino)-1-(3-(trifluoromethyl)phenyl)ethyl)-4-(trifluoromethoxy)benzenesulfonamide] returned a GI50 of 46.3 µM.

Turning to `O=S(=O)(N[C@@H](CO)c1ccc(Cl)c(Cl)c1)c1ccc(OC(F)(F)F)cc1` [Compound 121, (R)—N-(1-(3,4-dichlorophenyl)-2-hydroxyethyl)-4-(trifluoromethoxy)benzenesulfonamide], the GI50 was found to be 40.2 µM.

Consider `O=S(=O)(N[C@H](CO)c1ccc(Cl)c(Cl)c1)c1ccc(OC(F)(F)F)cc1` [Compound 122, (S)—N-(1-(3,4-dichlorophenyl)-2-hydroxyethyl)-4-(trifluoromethoxy)benzenesulfonamide], for which halving of growth (GI50) required 43.4 µM.

`Cc1ccc(C(CN(C)C)NS(=O)(=O)c2ccc(OC(F)(F)F)cc2)cc1` (centres unmarked) [Compound 123, N-(2-(dimethylamino)-1-(p-tolyl)ethyl)-4-(trifluoromethoxy)benzenesulfonamide]: it took 45.2 µM to inhibit growth by half (GI50).

Turning to `Cn1ccc(S(=O)(=O)NCC(NS(=O)(=O)c2ccc(OC(F)(F)F)cc2)c2ccccc2)c1` (centres unmarked) [Compound 124, 1-methyl-N-(2-phenyl-2-((4-(trifluoromethoxy)phenyl)sulfonamido)ethyl)-1H-pyrrole-3-sulfonamide], the GI50 is 49.7 µM. This GI50 and that of the compound before are within 1.5-fold of each other.

`CN(C)CC(NS(=O)(=O)c1ccc(OC(F)(F)F)cc1)c1ccc(Cl)cc1` (centres unmarked) [Compound 125, N-(1-(4-chlorophenyl)-2-(dimethylamino)ethyl)-4-(trifluoromethoxy)benzenesulfonamide] came in with a GI50 of 57 µM.

In turn, `CN=S(=O)(NC(CN(C)C)c1ccc(Cl)c(Cl)c1)c1ccc(OC(F)(F)F)cc1` (centres unmarked) [Compound 126, N-(1-(3,4-dichlorophenyl)-2-(dimethylamino)ethyl)-N′-methyl-4-(trifluoromethoxy)benzenesulfonimidamide] registered a GI50 of 24.9 µM.

In turn, `CNS(=O)(=NC(CN(C)C)c1ccc(Cl)c(Cl)c1)c1ccc(OC(F)(F)F)cc1` (centres unmarked) [Compound 127, N′-(1-(3,4-dichlorophenyl)-2-(dimethylamino)ethyl)-N-methyl-4-(trifluoromethoxy)benzenesulfonimidamide] gave a concentration for 50% growth inhibition (GI50) of 51.9 µM. This GI50 lies about 2.1-fold higher than the previous one.

Compound `CN(C)CC(NS(=O)(=O)c1cccc(OC(F)(F)F)c1)c1ccc(Cl)c(Cl)c1` (centres unmarked) [Compound 128, N-(1-(3,4-dichlorophenyl)-2-(dimethylamino)ethyl)-3-(trifluoromethoxy)benzenesulfonamide] showed a GI50 of 21.1 µM.

`CN(C)CC(NS(=O)(=O)c1cccc(F)c1)c1ccc(Cl)c(Cl)c1` (centres unmarked) [Compound 129, N-(1-(3,4-dichlorophenyl)-2-(dimethylamino)ethyl)-3-fluorobenzenesulfonamide]: the GI50 came to 69.9 µM. This GI50 lies about 3.3-fold higher than the previous one.

As to `CN(C)CC(NS(=O)(=O)c1ccc(F)cc1)c1ccc(Cl)c(Cl)c1` (centres unmarked) [Compound 130, N-(1-(3,4-dichlorophenyl)-2-(dimethylamino)ethyl)-4-fluorobenzenesulfonamide], growth was halved (GI50) at 62.4 µM.

`Cc1ccccc1S(=O)(=O)NC(CN(C)C)c1ccc(Cl)c(Cl)c1` (centres unmarked) [Compound 131, N-(1-(3,4-dichlorophenyl)-2-(dimethylamino)ethyl)-2-methylbenzenesulfonamide] showed a GI50 of 49 µM.

Consider `Cc1cccc(S(=O)(=O)NC(CN(C)C)c2ccc(Cl)c(Cl)c2)c1` (centres unmarked) [Compound 132, N-(1-(3,4-dichlorophenyl)-2-(dimethylamino)ethyl)-3-methylbenzenesulfonamide], for which the GI50 amounted to 40.5 µM.

For the compound `Cc1ccc(S(=O)(=O)NC(CN(C)C)c2ccc(Cl)c(Cl)c2)cc1` (centres unmarked) [Compound 133, N-(1-(3,4-dichlorophenyl)-2-(dimethylamino)ethyl)-4-methylbenzenesulfonamide], the GI50 was determined as 51.8 µM.

In the case of `CN(C)CC(NS(=O)(=O)c1cc(F)cc(F)c1)c1ccc(Cl)c(Cl)c1` (centres unmarked) [Compound 134, N-(1-(3,4-dichlorophenyl)-2-(dimethylamino)ethyl)-3,5-difluorobenzenesulfonamide], it took 75.6 µM to inhibit growth by half (GI50).

As for `CN(C)CC(NS(=O)(=O)C1CCCCC1)c1ccc(Cl)c(Cl)c1` (centres unmarked) [Compound 135, N-(1-(3,4-dichlorophenyl)-2-(dimethylamino)ethyl)cyclohexanesulfonamide], the GI50 was found to be 57.3 µM. This GI50 and that of the compound before are within 1.5-fold of each other.

Compound `CN(C)CC(NS(=O)(=O)CCc1ccccc1)c1ccc(Cl)c(Cl)c1` (centres unmarked) [Compound 136, N-(1-(3,4-dichlorophenyl)-2-(dimethylamino)ethyl)-2-phenylethane-1-sulfonamide] yielded a GI50 of 24.3 µM.

On to `CCCc1ccc(S(=O)(=O)NC(CN(C)C)c2ccc(Cl)c(Cl)c2)cc1` (centres unmarked) [Compound 137, N-(1-(3,4-dichlorophenyl)-2-(dimethylamino)ethyl)-4-propylbenzenesulfonamide], for which the 50% growth inhibitory concentration (GI50) stood at 12.3 µM.

Compound `CN(C)CC(NS(=O)(=O)c1ccc(Oc2ccccc2)cc1)c1ccc(Cl)c(Cl)c1` (centres unmarked) [Compound 138, N-(1-(3,4-dichlorophenyl)-2-(dimethylamino)ethyl)-4-phenoxybenzenesulfonamide] came in with a concentration for 50% growth inhibition (GI50) of 10.5 µM.

Regarding `CN(C)CC(NS(=O)(=O)c1ccc(Oc2ccc(C(F)(F)F)cc2)cc1)c1ccc(Cl)c(Cl)c1` (centres unmarked) [Compound 139, N-(1-(3,4-dichlorophenyl)-2-(dimethylamino)ethyl)-4-(4-(trifluoromethyl)phenoxy)benzenesulfonamide], it took 10.2 µM to inhibit growth by half (GI50).

With `CN(C)CC(NS(=O)(=O)c1ccc(-c2ccccc2)cc1)c1ccc(Cl)c(Cl)c1` (centres unmarked) [Compound 143, N-(1-(3,4-dichlorophenyl)-2-(dimethylamino)ethyl)-[1,1′-biphenyl]-4-sulfonamide], the concentration for 50% growth inhibition (GI50) was 11.2 µM.

`CN(C)CC(NS(=O)(=O)c1cccc(-c2ccccc2)c1)c1ccc(Cl)c(Cl)c1` (centres unmarked) [Compound 144, N-(1-(3,4-dichlorophenyl)-2-(dimethylamino)ethyl)-[1,1′-biphenyl]-3-sulfonamide] yielded a concentration for 50% growth inhibition (GI50) of 14.4 µM.

As to `CN(C)CC(NS(=O)(=O)c1cccc2ccccc12)c1ccc(Cl)c(Cl)c1` (centres unmarked) [Compound 145, N-(1-(3,4-dichlorophenyl)-2-(dimethylamino)ethyl)naphthalene-1-sulfonamide], the GI50 was 21.7 µM.

In turn, `CN(C)CC(NS(=O)(=O)c1ccc2ccccc2c1)c1ccc(Cl)c(Cl)c1` (centres unmarked) [Compound 146, N-(1-(3,4-dichlorophenyl)-2-(dimethylamino)ethyl)naphthalene-2-sulfonamide] returned a GI50 of 23.8 µM. The GI50 values of the last two compounds are within 1.5-fold of each other.

In turn, `CN(C)CC(NS(=O)(=O)c1ccc(OC(F)(F)F)cc1)c1ccc(Cl)c(Cl)c1` (centres unmarked) [Compound 147, N-(1-(3,4-dichlorophenyl)-2-(dimethylamino)ethyl)-4-(trifluoromethoxy)benzenesulfonamide] had a GI50 of 19.5 µM. The GI50 values of the last two compounds are within 1.5-fold of each other.

`Cc1ccccc1C(CN(C)C)NS(=O)(=O)c1ccc(OC(F)(F)F)cc1` (centres unmarked) [Compound 150, N-(2-(dimethylamino)-1-(o-tolyl)ethyl)-4-(trifluoromethoxy)benzenesulfonamide]: it took 59.6 µM to inhibit growth by half (GI50).

Compound `CN(C)CC(NS(=O)(=O)c1ccc(OC(F)(F)F)cc1Cl)c1ccc(Cl)c(Cl)c1` (centres unmarked) [Compound 151, 2-chloro-N-(1-(3,4-dichlorophenyl)-2-(dimethylamino)ethyl)-4-(trifluoromethoxy)benzenesulfonamide] showed a GI50 of 23.6 µM.

As for `CN(C)CC(NS(=O)(=O)c1ccc(OC(F)(F)F)c(Cl)c1)c1ccc(Cl)c(Cl)c1` (centres unmarked) [Compound 152, 3-chloro-N-(1-(3,4-dichlorophenyl)-2-(dimethylamino)ethyl)-4-(trifluoromethoxy)benzenesulfonamide], halving of growth (GI50) required 12.1 µM.

What is called GI50 is the concentration at which growth is held to half of that of the control. Low readings indicate greater sensitivity of the cells, high ones lower sensitivity of the cells.

Values taken from patent publication US20240174603A1 (Rappta Therapeutics Oy, priority 2021, published 2024).
